Reference: patent US9439903B2, “Process for the preparation of amorphous imatinib mesylate” (CADILA HEALTHCARE LIMITED, priority 2012, dated 2016)
Counter-ions that a name gives are not always drawn.

Experiments:
Type in all cases: physicochemical
[1] = Stability of amorphous imatinib mesylate, accelerated storage 40° C./75% RH; details: 40° C. ± 2° C./75% ± 5% RH (Accelerated)
Method: (§1) The amorphous imatinib mesylate having less than 2.0% water, in particular, having less than 1.7% water, more particularly, water content is in the range of 0.7% to 1.7% as manufactured by the process of the present invention was subjected to stability for at least 6 months at 25° C./60% RH or at about 40° C./75% RH. The following Table-1 and Tabel-2 discloses the stability conditions and results.

[2] = Hygroscopicity as per Ph. Eur. general chapter 5.11
Description: In one general aspect, the amorphous imatinib mesylate was subjected to study the hygroscopicity as per the Ph. Eur. general chapter 5.11.

[3] = Stability of amorphous imatinib mesylate, real time storage 25° C./60% RH; details: 25° C. ± 2° C./60% ± 5% RH (Real time)
Method: as §1

Cc1ccc(NC(=O)c2ccc(CN3CCN(C)CC3)cc2)cc1Nc1nccc(-c2cccnc2)n1 [amorphous imatinib mesylate, Imatinib mesylate]
Description ([1]; 1 Month): Pale yellow | Related substance (%) by HPLC: Impurity-AMPPP ([1]; 1 Month): BQL | Related substance (%) by HPLC: Impurity-MPMBA ([1]; 1 Month): BQL | Related substance (%) by HPLC: Impurity-Methyl Ester analouge ([1]; 1 Month): BQL | Related substance (%) by HPLC: Impurity-NMPPP ([1]; 1 Month): BQL | Related substance (%) by HPLC: Single largest unknown Imp ([1]; 1 Month): 0.03% | Related substance (%) by HPLC: Total Impurities ([1]; 1 Month): 0.04% | Water (%) ([1]; 1 Month): 0.88% | X-Ray Diffraction ([1]; 1 Month): Amorphous | Description ([1]; 2 Month): Pale yellow | Related substance (%) by HPLC: Impurity-AMPPP ([1]; 2 Month): BQL | Related substance (%) by HPLC: Impurity-MPMBA ([1]; 2 Month): BQL | Related substance (%) by HPLC: Impurity-Methyl Ester analouge ([1]; 2 Month): BQL | Related substance (%) by HPLC: Impurity-NMPPP ([1]; 2 Month): BQL | Related substance (%) by HPLC: Single largest unknown Imp ([1]; 2 Month): 0.03% | Related substance (%) by HPLC: Total Impurities ([1]; 2 Month): 0.05% | Water (%) ([1]; 2 Month): 0.89% | X-Ray Diffraction ([1]; 2 Month): Amorphous | Description ([1]; 3 Month): Pale yellow | Related substance (%) by HPLC: Impurity-AMPPP ([1]; 3 Month): BQL | Related substance (%) by HPLC: Impurity-MPMBA ([1]; 3 Month): BQL | Related substance (%) by HPLC: Impurity-Methyl Ester analouge ([1]; 3 Month): BQL | Related substance (%) by HPLC: Impurity-NMPPP ([1]; 3 Month): BQL | Related substance (%) by HPLC: Single largest unknown Imp ([1]; 3 Month): 0.03% | Related substance (%) by HPLC: Total Impurities ([1]; 3 Month): 0.07% | Water (%) ([1]; 3 Month): 0.79% | X-Ray Diffraction ([1]; 3 Month): Amorphous | Description ([1]; 6 Month): Pale yellow | Related substance (%) by HPLC: Impurity-AMPPP ([1]; 6 Month): BQL | Related substance (%) by HPLC: Impurity-MPMBA ([1]; 6 Month): BQL | Related substance (%) by HPLC: Impurity-Methyl Ester analouge ([1]; 6 Month): BQL | Related substance (%) by HPLC: Impurity-NMPPP ([1]; 6 Month): BQL | Related substance (%) by HPLC: Single largest unknown Imp ([1]; 6 Month): 0.03% | Related substance (%) by HPLC: Total Impurities ([1]; 6 Month): 0.07% | Water (%) ([1]; 6 Month): 0.95% | X-Ray Diffraction ([1]; 6 Month): Amorphous | hygroscopicity [2]: very hygroscopic | Description ([3]; 1 Month): Pale yellow | Related substance (%) by HPLC: Impurity-AMPPP ([3]; 1 Month): BQL | Related substance (%) by HPLC: Impurity-MPMBA ([3]; 1 Month): BQL | Related substance (%) by HPLC: Impurity-Methyl Ester analouge ([3]; 1 Month): BQL | Related substance (%) by HPLC: Impurity-NMPPP ([3]; 1 Month): BQL | Related substance (%) by HPLC: Single largest unknown Imp ([3]; 1 Month): 0.03% | Related substance (%) by HPLC: Total Impurities ([3]; 1 Month): 0.04% | Water (%) ([3]; 1 Month): 0.72% | X-Ray Diffraction ([3]; 1 Month): Amorphous | Description ([3]; 2 Months): Pale yellow | Related substance (%) by HPLC: Impurity-AMPPP ([3]; 2 Months): BQL | Related substance (%) by HPLC: Impurity-MPMBA ([3]; 2 Months): BQL | Related substance (%) by HPLC: Impurity-Methyl Ester analouge ([3]; 2 Months): BQL | Related substance (%) by HPLC: Impurity-NMPPP ([3]; 2 Months): BQL | Related substance (%) by HPLC: Single largest unknown Imp ([3]; 2 Months): 0.03% | Related substance (%) by HPLC: Total Impurities ([3]; 2 Months): 0.04% | Water (%) ([3]; 2 Months): 0.64% | X-Ray Diffraction ([3]; 2 Months): Amorphous | Description ([3]; 3 Months): Pale yellow | Related substance (%) by HPLC: Impurity-AMPPP ([3]; 3 Months): BQL | Related substance (%) by HPLC: Impurity-MPMBA ([3]; 3 Months): BQL | Related substance (%) by HPLC: Impurity-Methyl Ester analouge ([3]; 3 Months): BQL | Related substance (%) by HPLC: Impurity-NMPPP ([3]; 3 Months): BQL | Related substance (%) by HPLC: Single largest unknown Imp ([3]; 3 Months): 0.03% | Related substance (%) by HPLC: Total Impurities ([3]; 3 Months): 0.05% | Water (%) ([3]; 3 Months): 0.65% | X-Ray Diffraction ([3]; 3 Months): Amorphous | Description ([3]; 6 Months): Pale yellow | Related substance (%) by HPLC: Impurity-AMPPP ([3]; 6 Months): BQL | Related substance (%) by HPLC: Impurity-MPMBA ([3]; 6 Months): BQL | Related substance (%) by HPLC: Impurity-Methyl Ester analouge ([3]; 6 Months): BQL | Related substance (%) by HPLC: Impurity-NMPPP ([3]; 6 Months): BQL | Related substance (%) by HPLC: Single largest unknown Imp ([3]; 6 Months): 0.03% | Related substance (%) by HPLC: Total Impurities ([3]; 6 Months): 0.06% | Water (%) ([3]; 6 Months): 0.69% | X-Ray Diffraction ([3]; 6 Months): Amorphous
